This is an account of results in patent US11542316B2, “S-Arrestin peptides and therapeutic uses thereof” (APITOPE INTERNATIONAL NV, priority 2017, dated 2023).

Ends that are not written are not given here.

This test has as its target T1, MHC II molecules present on dendritic cells (DC) (Homo sapiens, UniProt P01903+P01911).
T1 construct: from tissue; host or cells: CD11c+ dendritic cells from spleens of DR2tg mice (DRA*0101 and DRB1*1501 cDNAs under a mouse MHCII promoter, no mouse MHC class II)
The test can be described thus: In vivo presentation experiment, DR2tg mice. The settings on record: 100 μg peptide s.c., CD11c+ cells harvested after 2 hours, co-culture 48 hours. The text has this: FIG. 14: In vivo presentation protocol. Mice are immunized with peptide/CFA and a T cell line is established. For this, ten days after immunization the LN and spleens are harvested and cultured with different concentrations of peptide; 2×10^6 cells/ml APC+1×10^6 cells/ml CD4^+ cells per well. At day 7 the cells are re-stimulated with fresh APC and the same concentrations of peptide. After 14 to 21 days, CD4^+ cells are isolated from these cultures by magnetic bead isolation. These CD4^+ cells are co-cultured with CD11c^+ (dendritic) cells isolated by magnetic bead isolation from spleens of mice s.c. injected with peptide 2 hours before. Control mice receive a s.c. injection of PBS. After 48 hours, supernatant is collected and cytokine response (IFN-γ) is measured. […]
FIG. 17: In vivo presentation of HIP-9FL nested peptides in DR2 mice. […] After 48 hours, supernatant was collected and IFN-γ production was measured by ELISA. […]
DR3tg or DR2tg mice were injected with 100 μg of peptide in 100 μl PBS subcutaneously (s.c.) in the flank. […] After 48 hours, supernatant of these co-cultures was collected and CD4^+ T cell activation was analysed by IFN-γ ELISA (R&D Systems, Abingdon, UK). In a parallel experiment, CD4^+ T cell responses towards peptide added in vitro were assessed to make sure the T cells recognize the peptides presented by the CD11c^+ cells.

T1 sequence (P01903 26-254): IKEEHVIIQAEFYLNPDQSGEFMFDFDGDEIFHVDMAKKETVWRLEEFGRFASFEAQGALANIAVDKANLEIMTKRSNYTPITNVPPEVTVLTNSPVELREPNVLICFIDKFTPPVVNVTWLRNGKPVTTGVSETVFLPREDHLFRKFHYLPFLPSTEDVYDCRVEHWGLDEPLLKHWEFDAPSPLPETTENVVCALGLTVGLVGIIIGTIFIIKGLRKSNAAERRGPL
T1 sequence (P01911 30-266): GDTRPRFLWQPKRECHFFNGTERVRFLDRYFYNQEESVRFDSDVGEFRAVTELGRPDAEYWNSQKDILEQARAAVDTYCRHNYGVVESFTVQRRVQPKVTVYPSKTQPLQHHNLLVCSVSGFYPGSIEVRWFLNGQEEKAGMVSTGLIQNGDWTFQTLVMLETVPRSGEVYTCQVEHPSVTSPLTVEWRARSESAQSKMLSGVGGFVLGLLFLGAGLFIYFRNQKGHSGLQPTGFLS

“KKKAFVEQVANVVLKKK-NH2 [HIP-9K1-KKK, KKKAFVEQVANVVLKKK]”: the “picked up and presented by MHC II on dendritic cells to peptide-specific T cells (IFN-γ production)” value was “presented by DC to T cells”.
